In patent publication US20230127906A1, “FORMULATIONS FOR EXTENDING LIFESPAN AND HEALTHSPAN” (Buck Institute for Research on Aging, priority 2017, published 2023):
Entries after “also recorded” stand apart in the source; their conditions may differ.

How the values were obtained:
C57BL/6J mice = experiment: 31-item clinical frailty index in aged mice (total score and individual metrics); assay type: in vivo; conditions: for alopecia scores (hair loss): four month treatment starting at 18 months of age, FIG. 35; for piloerection: four month treatment, FIG. 37
Text: C57BL/6J mice of both sexes are aged in group caging in an approved animal facility. Mice are maintained on a 12-hour light/dark cycle, with free access to food and water. In general, initiation of interventions occurs in mice after 12 months of age and is maintained throughout the lifespan of the mice. However, short term or periodic interventional strategies may also be tested.
Mice are randomly assigned to either treatment or control group, and administered compositions of active agents or placebo (control) in food for a sufficient treatment period to observe effects on frailty characteristics.
Mice are periodically evaluated on the 31-item clinical frailty index previously described herein. This was first reported by Whitehead et al. (Journals of Gerontology: BIOLOGICAL SCIENCES, 69:621-632; 2014). This has been used in studies recently as a valuable metric of mouse frailty that involves non-invasive scoring ideal for longitudinal studies and corresponds well with the onset of human frailty (Rockwood et al., Scientific Reports, 7, 43068, 2017).
The 31 point metric for assessment of animal frailty is included in the following table:
For all individual frailty metrics shown, a similar strategy was used to assess frailty score. Using a double blind method, scorers were asked to assess the relative score of each animal either as 0 (healthy), 0.5 (moderately unhealthy) and 1 (unhealthy). For total frailty, all 31 metrics are added and divided by 31. For cohort 2, we report the total frailty score simply as the sum of all 31 metrics without normalization.
Loss of fur color and appearance of grey hair is used interchangeably.
Alopecia or hair loss is used interchangeably.
Kyphosis is a measure of exaggerated outward curvature of the lower cervical/thoracic vertebral column, and can reflect either loss of bone density or increased muscle weakness.
Tremors are a measure of involuntary shaking at rest or during movement. Dermatitis is a routine occurrence in aging C57/B16 mice.
Piloerection is defined as involuntary hair bristling and can be thought of similarly to “goose bumps.” This increases with age and can be triggered by coldness, reflecting an inability of the mice to maintain body temperature.
Mice are randomly assigned to either treatment or control group, and administered compositions comprising Ca-AKG or placebo in food for a sufficient treatment period to observe effects on frailty characteristics.
Mice are periodically evaluated on the 31-item clinical frailty index previously described herein.

inflammatory cytokines = experiment: Inflammatory cytokine levels in aged mice; assay type: in vivo; conditions: three month treatment starting at 18 months of age, animals at 21 months, Cohort 2, FIG. 24
IMR-90 fibroblasts = experiment: Cell senescence assay, irradiated cells, β-galactosidase; assay type: cell-based; conditions: cells pre-treated prior to irradiation, FIG. 12
Description: To measure the effects of Ca-AKG on cell senescence, IMR-90 fibroblasts in culture were exposed to gamma-irradiation either after pretreatment with AKG or prior to (post) treatment with Ca-AKG. Cell senescence was measured by β-Galactosidase fluorescence.

Structure (SMILES)	alopecia scores (hair loss) (C57BL/6J mice; female mice)	piloerection (C57BL/6J mice; female mice)	grey hair (C57BL/6J mice; female mice, measured at 23 months of life, Cohort 1, FIG. 18)	hair loss (C57BL/6J mice; relative to control mice, Cohort 1, FIG. 20, 21)	kyphosis (C57BL/6J mice; relative to control mice, Cohort 1, FIG. 22)	tremors (C57BL/6J mice; relative to control mice, Cohort 1, FIG. 23)	coat graying / grey hair (C57BL/6J mice; vs placebo/control mice, Cohort 1, FIG. 11, 19, 20)	levels of inflammatory cytokines (inflammatory cytokines)	cell senescence, senescence-associated β-galactosidase (beta gal) (IMR-90 fibroblasts)	fur color (coat color) (C57BL/6J mice; female mice, four months treatment starting at 18 months of age, FIG. 36)	frailty scores (frailty index) (C57BL/6J mice; female mice, two months of treatment, Cohort 2, FIG. 10A)	kyphosis index (C57BL/6J mice; male and female mice combined, two months treatment starting at 18 months of age, FIG. 34)	frailty scores (frailty index) (C57BL/6J mice; male mice, 2 months of treatment, Cohort 2, FIG. 10C)
O=C([O-])CCC(=O)C(=O)[O-].[Ca+2] [Ca-AKG, calcium α-ketoglutarate]	neither Ca-AKG nor RP had significant effects on their own	Neither compound alone had an effect	reduction in grey hair	reduced hair loss; also recorded: reduction in hair loss	reduction in kyphosis	reduction in tremors	dramatically reduced; also recorded: less grey hair than the control mouse; also recorded: less gray hair	prevents, or in some cases even reverses, the increase in levels of inflammatory cytokines	protected cells from irradiation-induced senescence; also recorded: decreases relative to control				
CCCCCCCCCCCCCCCC(=O)OC/C=C(C)/C=C/C=C(C)/C=C/C1=C(C)CCCC1(C)C [RP, retinyl palmitate]	neither Ca-AKG nor RP had significant effects on their own	Neither compound alone had an effect											
C=C1CC[C@H](O)C/C1=C/C=C1\CCC[C@]2(C)[C@@H]([C@H](C)CCCC(C)C)CC[C@@H]12 [vitamin D3]	sufficient to reduce alopecia									younger coat color	lower frailty	reduce the kyphosis index significantly	no significant reduction in frailty
